# From patent US10052320B2, “Substituted quinoxalines as FGFR kinase inhibitors” (ASTEX THERAPEUTICS LIMITED, priority 2011, dated 2018)
# Assays:
# KDR (h) (VEGFR2) = KDR (h) (VEGFR2) (Homo sapiens, UniProt P35968); assay: KDR (VEGFR2) (enzymatic assay), TR-FRET; format: biochemical
# How it was run: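 Phosphorylation of biotinylated Flt3 peptide (500 nM) by 150 ng/ml enzyme was measured at 3 μM ATP in Mn2+-containing HEPES buffer, pH 7.5, over 120 min at room temperature. Detection used Eu-anti-P-Tyr and SA-XL-665 TR-FRET.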
# [1] = molecular target: T1, Ba/F3-Flt3-transfected cells (Homo sapiens, UniProt P36888, cells depend on it, form not given); assay: Ba/F3-Flt3 (minus IL3) cellular proliferation assay, Alamar Blue; format: cell-based
# T1 sequence (P36888 1-993): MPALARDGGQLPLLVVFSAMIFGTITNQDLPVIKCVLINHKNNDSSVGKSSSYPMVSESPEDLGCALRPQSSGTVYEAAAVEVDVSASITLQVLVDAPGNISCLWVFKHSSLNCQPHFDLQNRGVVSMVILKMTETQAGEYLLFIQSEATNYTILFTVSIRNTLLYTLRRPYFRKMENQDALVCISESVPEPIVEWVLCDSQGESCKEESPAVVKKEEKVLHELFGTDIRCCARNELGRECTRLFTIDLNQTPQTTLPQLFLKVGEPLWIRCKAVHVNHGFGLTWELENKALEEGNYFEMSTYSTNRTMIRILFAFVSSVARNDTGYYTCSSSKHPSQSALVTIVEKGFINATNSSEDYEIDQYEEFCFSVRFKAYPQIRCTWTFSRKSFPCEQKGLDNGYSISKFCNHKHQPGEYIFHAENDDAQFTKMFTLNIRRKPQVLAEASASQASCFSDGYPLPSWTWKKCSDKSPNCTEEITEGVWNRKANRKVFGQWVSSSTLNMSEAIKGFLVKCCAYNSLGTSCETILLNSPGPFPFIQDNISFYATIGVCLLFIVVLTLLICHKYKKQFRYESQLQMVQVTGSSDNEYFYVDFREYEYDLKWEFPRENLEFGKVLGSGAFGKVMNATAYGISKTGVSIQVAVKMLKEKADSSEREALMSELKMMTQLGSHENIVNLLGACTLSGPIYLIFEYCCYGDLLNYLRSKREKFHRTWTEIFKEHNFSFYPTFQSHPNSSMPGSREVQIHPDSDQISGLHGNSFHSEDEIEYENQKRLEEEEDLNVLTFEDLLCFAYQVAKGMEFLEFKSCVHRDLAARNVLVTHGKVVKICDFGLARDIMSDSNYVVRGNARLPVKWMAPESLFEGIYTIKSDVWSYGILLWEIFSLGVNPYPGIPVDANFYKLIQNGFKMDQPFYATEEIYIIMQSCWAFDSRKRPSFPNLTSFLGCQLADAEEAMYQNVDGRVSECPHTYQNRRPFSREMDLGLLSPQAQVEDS
# FGFR1 (h) = FGFR1 (h) (Homo sapiens, UniProt P11362); assay: FGFR1 (enzymatic assay), TR-FRET; format: biochemical; conditions: read-out: FGFR 1 pIC50 (converted)
# Procedure: In a final reaction volume of 30 μL, FGFR1 (h) (25 ng/ml) was incubated with 50 mM HEPES pH 7.5, 6 mM MnCl2, 1 mM DTT, 0.1 mM Na3VO4, 0.01% Triton-X-100, 500 nM Btn-Flt3 and 5 μM ATP in the presence of compound (1% DMSO final). […] Time-Resolved Fluorescence Resonance Energy Transfer (TR-FRET) signal (ex340 nm. Em 620 nm, em 655 nm) was measured afterwards and results are expressed in RFU (Relative Fluorescence Units).
# Sequence of FGFR1 (h) (P11362 22-822): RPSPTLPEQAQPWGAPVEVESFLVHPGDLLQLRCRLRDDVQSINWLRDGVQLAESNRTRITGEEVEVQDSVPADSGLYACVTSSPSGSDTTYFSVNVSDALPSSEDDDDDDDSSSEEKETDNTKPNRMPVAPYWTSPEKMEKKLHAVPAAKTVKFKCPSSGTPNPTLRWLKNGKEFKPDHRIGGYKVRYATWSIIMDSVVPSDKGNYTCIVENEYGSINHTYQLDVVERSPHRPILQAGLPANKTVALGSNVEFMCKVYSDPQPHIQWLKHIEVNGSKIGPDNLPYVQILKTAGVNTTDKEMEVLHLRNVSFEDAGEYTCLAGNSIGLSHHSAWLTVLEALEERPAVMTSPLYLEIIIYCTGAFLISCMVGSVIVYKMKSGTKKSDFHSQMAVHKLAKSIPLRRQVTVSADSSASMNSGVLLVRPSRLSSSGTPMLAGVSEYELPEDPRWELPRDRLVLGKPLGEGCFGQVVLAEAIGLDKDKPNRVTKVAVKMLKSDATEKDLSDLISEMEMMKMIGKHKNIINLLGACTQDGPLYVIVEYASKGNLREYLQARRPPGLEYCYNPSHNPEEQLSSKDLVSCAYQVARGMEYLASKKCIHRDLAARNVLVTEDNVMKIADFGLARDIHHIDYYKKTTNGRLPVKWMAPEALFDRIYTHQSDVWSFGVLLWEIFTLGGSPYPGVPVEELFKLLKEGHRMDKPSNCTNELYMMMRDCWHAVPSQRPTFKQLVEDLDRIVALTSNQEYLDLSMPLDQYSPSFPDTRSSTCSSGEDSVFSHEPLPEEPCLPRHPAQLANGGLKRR
# Sequence of KDR (h) (VEGFR2) (P35968 20-1356): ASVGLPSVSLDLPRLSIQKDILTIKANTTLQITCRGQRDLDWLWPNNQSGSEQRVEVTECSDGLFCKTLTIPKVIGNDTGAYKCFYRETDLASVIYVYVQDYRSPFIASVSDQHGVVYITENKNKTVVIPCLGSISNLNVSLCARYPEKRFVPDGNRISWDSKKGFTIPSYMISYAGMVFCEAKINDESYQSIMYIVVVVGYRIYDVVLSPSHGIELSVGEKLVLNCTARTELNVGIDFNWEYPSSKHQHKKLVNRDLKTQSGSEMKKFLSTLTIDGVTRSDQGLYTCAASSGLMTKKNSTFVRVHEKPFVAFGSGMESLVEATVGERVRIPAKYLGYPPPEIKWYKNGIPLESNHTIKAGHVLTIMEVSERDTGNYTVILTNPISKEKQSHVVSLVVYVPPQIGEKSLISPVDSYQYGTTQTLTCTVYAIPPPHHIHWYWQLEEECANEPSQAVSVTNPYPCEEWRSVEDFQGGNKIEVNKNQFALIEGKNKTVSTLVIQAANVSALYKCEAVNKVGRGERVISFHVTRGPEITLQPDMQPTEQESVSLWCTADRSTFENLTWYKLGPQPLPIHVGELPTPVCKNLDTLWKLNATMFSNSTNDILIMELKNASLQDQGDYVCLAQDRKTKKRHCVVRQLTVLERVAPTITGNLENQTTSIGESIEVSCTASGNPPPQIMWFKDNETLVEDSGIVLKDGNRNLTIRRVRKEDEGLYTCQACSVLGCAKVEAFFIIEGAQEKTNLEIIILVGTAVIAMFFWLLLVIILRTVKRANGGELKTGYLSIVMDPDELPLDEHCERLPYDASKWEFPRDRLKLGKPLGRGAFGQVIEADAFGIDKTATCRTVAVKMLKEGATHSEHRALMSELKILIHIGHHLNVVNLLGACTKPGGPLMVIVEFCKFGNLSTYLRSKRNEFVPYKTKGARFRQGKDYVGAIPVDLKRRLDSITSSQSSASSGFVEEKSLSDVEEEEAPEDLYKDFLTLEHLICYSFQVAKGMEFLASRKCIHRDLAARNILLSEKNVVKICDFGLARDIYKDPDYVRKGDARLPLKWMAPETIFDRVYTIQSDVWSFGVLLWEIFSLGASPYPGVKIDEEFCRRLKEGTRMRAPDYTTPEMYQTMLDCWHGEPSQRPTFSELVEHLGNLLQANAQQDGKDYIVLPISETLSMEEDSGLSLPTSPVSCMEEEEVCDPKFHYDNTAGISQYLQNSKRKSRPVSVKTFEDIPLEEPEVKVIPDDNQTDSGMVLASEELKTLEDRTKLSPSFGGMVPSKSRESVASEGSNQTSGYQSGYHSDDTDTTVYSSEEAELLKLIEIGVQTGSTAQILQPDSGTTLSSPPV
Compound,IC50 (KDR (h) (VEGFR2)) [nM],BAF3-FLT3 (MIN IL3) 384 well pIC50 ([1]; minus IL3),IC50 (FGFR1 (h)) [nM],BAF3-FLT3 (MIN IL3) 96 well pIC50 ([1]; minus IL3),"BAF3-FLT3 (MIN IL3) 96 well pIC50 ([1]; minus IL3, 96 well)","BAF3-FLT3 (MIN IL3) 384 well pIC50 ([1]; minus IL3, 384 well)"
"COc1cc(OC)cc(N(CC(OC(C)=O)C(F)(F)F)c2ccc3ncc(-c4cccnc4)nc3c2)c1 (single isomer, unassigned) [Compound 45]",> 1000,<5,–,–,–,–
"COc1cc(OC)cc(N(CC(O)C(F)(F)F)c2ccc3ncc(-c4cccnc4)nc3c2)c1 (single isomer, unassigned) [Compound 53]",363,<5,–,–,–,–
"COc1cc(OC)cc(N(CC(O)C(F)(F)F)c2ccc3ncc(-c4cccnc4)nc3c2)c1 (single isomer, unassigned) [Compound 54]",794,<5,–,–,–,–
"COc1cc(OC)cc(N(CC(OC(C)=O)C(F)(F)F)c2ccc3ncc(-c4cccnc4)nc3c2)c1 (single isomer, unassigned) [Compound 75]",–,<5,–,–,–,–
COCCCN(c1cc(OC)cc(OC)c1)c1ccc2ncc(-c3ccn(C)c3)nc2c1 [Compound 3],126,5.07,7.76,–,–,–
COCCN(c1cc(OC)cc(OC)c1)c1ccc2ncc(-c3ccn(C)c3)nc2c1 [Compound 6],107,<5,4.37,–,–,–
COc1cc(OC)cc(N(CCNC(C)C)c2ccc3ncc(-c4cccnc4)nc3c2)c1 [Compound 10],295,~5.01,2.75,–,–,–
COc1cc(OC)cc(N(CCO)c2ccc3ncc(-c4ccncc4)nc3c2)c1 [Compound 11],269,<5,8.13,–,–,–
COc1cc(OC)cc(N(CCNC(C)C)c2ccc3ncc(-c4ccc(N)nc4)nc3c2)c1 [Compound 17],94.4,5.17,1.23,–,–,–
COc1cc(OC)cc(N(CC2CC2)c2ccc3ncc(-c4ccnn4C)nc3c2)c1 [Compound 18],> 10000,<5,–,<5,–,–
COc1cc(OC)cc(N(CC2CC2)c2ccc3ncc(-c4ccc5c(ccn5C)c4)nc3c2)c1 [Compound 20],> 10000,–,–,–,<5,<5
COc1cc(OC)cc(N(CC2CC2)c2ccc3ncc(C#Cc4ccncc4)nc3c2)c1 [Compound 23],> 1000,<5,501,5.31,–,–
COc1cc(OC)cc(N(CC2CC2)c2ccc3ncc(-c4cn(CCN5CCOCC5)nn4)nc3c2)c1 [Compound 24],832,<5,20.4,<5,–,–
CNC(=O)c1cc(-c2cnc3ccc(N(CCN4CCCC4=O)c4cc(OC)cc(OC)c4)cc3n2)ccn1 [Compound 25],> 1000,<5,468,–,–,–
COc1cc(OC)cc(N(CC2CC2)c2ccc3ncc(-n4cnc(C)c4)nc3c2)c1 [Compound 30],501,<5,51.3,5.06,–,–
COc1cc(OC)cc(N(CC2CC2)c2ccc3ncc(-n4ccnc4C)nc3c2)c1 [Compound 32],> 1000,<5,417,<5,–,–
COc1cc(OC)cc(N(CCCO)c2ccc3ncc(-c4ccnc(C(=O)NCCCN)c4)nc3c2)c1 [Compound 33],575,<5,12.6,–,–,–
COc1cc(OC)cc(N(CC2CC2)c2ccc3ncc(-c4cc[nH]c4)nc3c2)c1 [Compound 36],676,<5,–,<5,–,–
COc1cc(OC)cc(N(CC2CC2)c2ccc3ncc(-n4cncn4)nc3c2)c1 [Compound 50],> 1000,<5,759,<5,–,–
COc1cc(OC)cc(N(Cc2cccc(CN)n2)c2ccc3ncc(-c4ccc(N)nc4)nc3c2)c1 [Compound 51],309,5.27,3.72,–,–,–
COc1cc(OC)cc(N(CC2CC2)c2ccc3ncc(Nc4cnn(C)c4)nc3c2)c1 [Compound 61],> 1000,<5,–,5.25,–,–
COc1cc(OC)cc(N(CCCO)c2ccc3ncc(-c4ccnc(N)c4)nc3c2)c1 [Compound 66],75.9,–,3.09,–,–,–
COc1cc(OC)cc(N(CC2CC2)c2ccc3ncc(-c4cnn(C)n4)nc3c2)c1 [Compound 70],> 1000,<5,–,<5,–,–
COc1cc(OC)cc(N(CC2CC2)c2ccc3ncc(-c4ccn(C)c4)nc3c2)c1 [Compound 73],295,5.03,–,5.31,–,–
COc1cc(OC)cc(N(CCCO)c2ccc3ncc(-c4cccnc4)nc3c2)c1 [Compound 112],468,–,18.6,–,–,–
COc1cc(OC)cc(N(CCCO)c2ccc3ncc(-c4ccc(C)nc4)nc3c2)c1 [Compound 115],309,–,15.8,–,–,–
COc1cc(OC)cc(N(CCCO)c2ccc3ncc(-c4ccc(F)nc4)nc3c2)c1 [Compound 117],912,–,20.4,–,–,–

# Continued, values first:
IC50 (KDR (h) (VEGFR2)) [nM],BAF3-FLT3 (MIN IL3) 384 well pIC50 ([1]; minus IL3),IC50 (FGFR1 (h)) [nM],BAF3-FLT3 (MIN IL3) 96 well pIC50 ([1]; minus IL3),"BAF3-FLT3 (MIN IL3) 96 well pIC50 ([1]; minus IL3, 96 well)","BAF3-FLT3 (MIN IL3) 384 well pIC50 ([1]; minus IL3, 384 well)",Compound
20,5.2,0.457,–,–,–,COc1cc(OC)cc(N(CCNC(C)C)c2ccc3ncc(-c4ccn(C)c4)nc3c2)c1 [Compound 8]
295,<5,10,–,–,–,COc1cc(OC)cc(N(CCO)c2ccc3ncc(-c4cccnc4)nc3c2)c1 [Compound 9]
95.5,5.14,2.14,–,–,–,COc1cc(OC)cc(N(CCNC(C)C)c2ccc3ncc(-c4ccncc4)nc3c2)c1 [Compound 12]
490,5.02,6.17,–,–,–,CNC(=O)c1cc(-c2cnc3ccc(N(CCNC(C)C)c4cc(OC)cc(OC)c4)cc3n2)ccn1 [Compound 14]
708,<5,–,<5,–,–,COc1cc(OC)cc(N(CC2CC2)c2ccc3ncc(-c4cn(C)cn4)nc3c2)c1 [Compound 21]
> 1000,<5,933,<5,–,–,COc1cc(OC)cc(N(CC2CC2)c2ccc3ncc(-n4ccc(C)n4)nc3c2)c1 [Compound 31]
398,<5,77.6,<5,–,–,COc1cc(OC)cc(N(CC2CC2)c2ccc3ncc(-c4cn(CCO)nn4)nc3c2)c1 [Compound 40]
3310,<5,57.5,<5,–,–,COc1cc(OC)cc(N(CC2CC2)c2ccc3ncc(-c4nnn[nH]4)nc3c2)c1 [Compound 41]
110,5.44,2.45,–,–,–,COc1cc(OC)cc(N(CCCO)c2ccc3ncc(-c4ccc(N5CCNCC5)nc4)nc3c2)c1 [Compound 48]
912,<5,37.2,<5,–,–,COc1cc(OC)cc(N(CC2CC2)c2ccc3ncc(-c4cnco4)nc3c2)c1 [Compound 55]
151,<5,–,<5,–,–,COc1cc(OC)cc(N(CC2CC2)c2ccc3ncc(-c4ccn(CCO)c4)nc3c2)c1 [Compound 56]
813,<5,–,<5,–,–,COc1cc(OC)cc(N(CC2CC2)c2ccc3ncc(-c4cn(C)nn4)nc3c2)c1 [Compound 71]
